Source: the NIST ThermoML archive (doi:10.1021/je900093h)
Numbers after ± are expanded uncertainties.

Assay: Molar enthalpy of transition or fusion
Details: Crystal

CCCCCCCCCC(=O)OCC [ethyl decanoate]
Molar enthalpy of transition or fusion: 7.717 ± 0.0526 kcal/mol
